According to ChEMBL document CHEMBL1909046, “DrugMatrix in vitro pharmacology data”:

Experiments:
[1] = target: T1, Alpha-1B adrenergic receptor (Rattus norvegicus, UniProt P15823); assay: DRUGMATRIX: Alpha-1B adrenergic receptor radioligand binding (ligand: prazosin); format: cell membranes, Wistar, Liver, Membrane; conditions: Not Active = under 50% inhibition at 10 µM
T1 sequence (P15823 whole entry): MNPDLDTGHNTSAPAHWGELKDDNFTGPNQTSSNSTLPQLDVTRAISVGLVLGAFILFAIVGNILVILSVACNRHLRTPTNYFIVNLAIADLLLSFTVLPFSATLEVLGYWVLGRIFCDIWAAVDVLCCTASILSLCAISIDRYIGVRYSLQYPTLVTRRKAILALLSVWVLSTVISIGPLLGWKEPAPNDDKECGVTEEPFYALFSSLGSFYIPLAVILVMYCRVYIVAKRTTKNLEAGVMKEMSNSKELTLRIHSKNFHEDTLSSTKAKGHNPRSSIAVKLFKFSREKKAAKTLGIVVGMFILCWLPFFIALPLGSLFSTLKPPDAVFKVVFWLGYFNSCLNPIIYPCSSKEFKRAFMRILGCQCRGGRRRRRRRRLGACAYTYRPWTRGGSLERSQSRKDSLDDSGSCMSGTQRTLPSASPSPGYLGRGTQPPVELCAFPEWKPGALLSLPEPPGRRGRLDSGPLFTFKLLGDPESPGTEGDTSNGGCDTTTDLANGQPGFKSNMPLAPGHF

[2] = DRUGMATRIX: Calcium Channel Type L, Benzothiazepine radioligand binding (ligand: [3H] Diltiazem); format: cell membranes, Rattus norvegicus, Wistar, Brain, Membrane; conditions: Not Active = under 50% inhibition at 10 µM
[3] = DRUGMATRIX: GABAA, Chloride Channel, TBOB radioligand binding (ligand: [3H] TBOB); format: cell membranes, Rattus norvegicus, Wistar, Cerebral cortex, Membrane; conditions: Not Active = under 50% inhibition at 10 µM
[4] = target: T2, 3-hydroxy-3-methylglutaryl-coenzyme A reductase (Homo sapiens, UniProt P04035); parameters: species or system Escherichia coli;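 also: enzyme inhibition assay of HMG-CoA reductase using radiolabeled [14C]HMG-CoA as substrate; in other assays of this panel Not Active means under 50% inhibition at 10 µM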
T2 sequence (P04035 whole entry): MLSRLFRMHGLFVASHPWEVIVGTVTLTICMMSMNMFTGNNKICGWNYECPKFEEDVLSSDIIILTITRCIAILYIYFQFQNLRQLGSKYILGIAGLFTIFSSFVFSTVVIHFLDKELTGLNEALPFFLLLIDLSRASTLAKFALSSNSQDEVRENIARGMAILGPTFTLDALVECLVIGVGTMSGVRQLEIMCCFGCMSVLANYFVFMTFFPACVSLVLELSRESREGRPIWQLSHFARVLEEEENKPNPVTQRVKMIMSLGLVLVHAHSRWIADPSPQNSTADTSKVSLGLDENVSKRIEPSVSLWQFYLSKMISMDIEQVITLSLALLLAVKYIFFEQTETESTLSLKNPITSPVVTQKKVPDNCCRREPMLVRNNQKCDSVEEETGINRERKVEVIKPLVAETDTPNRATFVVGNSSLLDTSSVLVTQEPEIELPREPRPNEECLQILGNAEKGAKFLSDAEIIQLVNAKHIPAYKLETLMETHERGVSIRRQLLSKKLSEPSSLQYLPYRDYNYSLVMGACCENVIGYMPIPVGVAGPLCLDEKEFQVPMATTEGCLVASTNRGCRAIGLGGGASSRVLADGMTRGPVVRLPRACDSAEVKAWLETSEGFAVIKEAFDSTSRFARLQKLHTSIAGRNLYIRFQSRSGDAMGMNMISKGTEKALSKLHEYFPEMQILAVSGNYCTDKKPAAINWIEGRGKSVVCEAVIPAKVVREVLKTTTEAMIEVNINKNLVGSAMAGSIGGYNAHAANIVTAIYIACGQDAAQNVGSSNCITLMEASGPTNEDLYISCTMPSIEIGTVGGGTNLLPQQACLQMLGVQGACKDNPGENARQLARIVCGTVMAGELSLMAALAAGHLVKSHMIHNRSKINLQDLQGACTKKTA

[5] = target: Platelet-activating factor receptor (Homo sapiens, UniProt P25105); assay: biochemical; format: tissue-based; conditions: platelet; also: in other assays of this panel Not Active means under 50% inhibition at 10 µM
Cytochrome P450 2C19 = Cytochrome P450 2C19 (Homo sapiens, UniProt P33261); conditions: bti-tn-5b1-4; also: in other assays of this panel Not Active means under 50% inhibition at 10 µM
Cytochrome P450 2D6 = Cytochrome P450 2D6 (Homo sapiens, UniProt P10635); conditions: bti-tn-5b1-4; also: in other assays of this panel Not Active means under 50% inhibition at 10 µM
Chain of Cytochrome P450 2D6 (P10635 whole entry): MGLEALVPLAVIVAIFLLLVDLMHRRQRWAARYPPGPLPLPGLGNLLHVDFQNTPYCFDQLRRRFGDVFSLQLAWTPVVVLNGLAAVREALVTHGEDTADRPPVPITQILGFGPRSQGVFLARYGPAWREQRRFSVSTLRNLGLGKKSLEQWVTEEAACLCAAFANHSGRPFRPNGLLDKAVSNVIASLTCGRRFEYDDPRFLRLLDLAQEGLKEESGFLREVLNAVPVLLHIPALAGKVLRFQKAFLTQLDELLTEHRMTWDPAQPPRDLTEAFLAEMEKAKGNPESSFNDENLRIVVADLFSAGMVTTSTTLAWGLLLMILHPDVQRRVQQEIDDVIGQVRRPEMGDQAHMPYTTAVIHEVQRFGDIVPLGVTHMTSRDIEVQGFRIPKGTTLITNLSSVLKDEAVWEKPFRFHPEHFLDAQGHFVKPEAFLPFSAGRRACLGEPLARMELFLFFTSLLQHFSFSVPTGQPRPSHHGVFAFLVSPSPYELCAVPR

Chain of Cytochrome P450 2C19 (P33261 whole entry): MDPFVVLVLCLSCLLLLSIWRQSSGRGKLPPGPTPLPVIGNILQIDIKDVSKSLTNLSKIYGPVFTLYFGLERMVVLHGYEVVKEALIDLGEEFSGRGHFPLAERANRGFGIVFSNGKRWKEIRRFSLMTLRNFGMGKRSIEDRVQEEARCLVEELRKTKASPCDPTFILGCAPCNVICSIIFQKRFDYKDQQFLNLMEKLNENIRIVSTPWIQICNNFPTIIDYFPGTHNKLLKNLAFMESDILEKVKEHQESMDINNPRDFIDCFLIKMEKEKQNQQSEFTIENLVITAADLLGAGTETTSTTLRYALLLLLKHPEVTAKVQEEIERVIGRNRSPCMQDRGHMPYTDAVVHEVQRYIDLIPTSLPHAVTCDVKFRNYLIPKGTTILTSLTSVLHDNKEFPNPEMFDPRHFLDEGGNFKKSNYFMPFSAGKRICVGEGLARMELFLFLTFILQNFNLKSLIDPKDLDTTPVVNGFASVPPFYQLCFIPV
Chain of Platelet-activating factor receptor (P25105 whole entry): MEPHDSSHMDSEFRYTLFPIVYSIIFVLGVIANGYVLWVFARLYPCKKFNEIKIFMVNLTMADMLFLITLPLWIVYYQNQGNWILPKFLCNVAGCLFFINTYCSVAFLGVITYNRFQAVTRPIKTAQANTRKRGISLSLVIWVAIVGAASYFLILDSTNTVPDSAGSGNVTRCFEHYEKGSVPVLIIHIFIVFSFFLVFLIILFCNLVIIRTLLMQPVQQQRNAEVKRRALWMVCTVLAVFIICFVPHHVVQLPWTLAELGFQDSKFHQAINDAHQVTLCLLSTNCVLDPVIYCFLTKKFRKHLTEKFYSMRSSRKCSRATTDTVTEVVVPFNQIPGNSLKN

CC(C(=O)O)c1ccc(CC2CCCC2=O)cc1 (stereo unspecified) [LOXOPROFEN]
Not Active: IC50 [1] | IC50 [2] | Ki [2] | IC50 [3] | Ki [3] | IC50 [4] | IC50 [5] | IC50 (Cytochrome P450 2C19) | Ki (Cytochrome P450 2C19) | IC50 (Cytochrome P450 2D6) | Ki (Cytochrome P450 2D6)

CCCCCC[C@H]1C(=O)O[C@H](C)[C@H](NC(=O)c2cccc(NC=O)c2O)C(=O)O[C@@H](C)[C@@H]1OC(=O)CC(C)C [ANTIMYCIN A]
Not Active: IC50 [1] | IC50 [2] | Ki [2] | IC50 [3] | Ki [3] | IC50 [4] | IC50 [5] | IC50 (Cytochrome P450 2C19) | Ki (Cytochrome P450 2C19) | IC50 (Cytochrome P450 2D6) | Ki (Cytochrome P450 2D6)

O=c1cc(-c2ccccc2)oc2ccc3ccccc3c12 [BETA-NAPHTHOFLAVONE]
Not Active: IC50 [1] | IC50 [2] | Ki [2] | IC50 [3] | Ki [3] | IC50 [4] | IC50 [5] | IC50 (Cytochrome P450 2C19) | Ki (Cytochrome P450 2C19) | IC50 (Cytochrome P450 2D6) | Ki (Cytochrome P450 2D6)

CC(=O)O[C@]1(C(C)=O)CC[C@H]2[C@@H]3C=C(Cl)C4=CC(=O)[C@@H]5C[C@@H]5[C@]4(C)[C@H]3CC[C@@]21C [CYPROTERONE ACETATE]
Not Active: IC50 [1] | IC50 [2] | Ki [2] | IC50 [3] | Ki [3] | IC50 [4] | IC50 [5] | IC50 (Cytochrome P450 2C19) | Ki (Cytochrome P450 2C19) | IC50 (Cytochrome P450 2D6) | Ki (Cytochrome P450 2D6)

CCN[C@@H](C)Cc1cccc(C(F)(F)F)c1 [DEXFENFLURAMINE]
Not Active: IC50 [1] | IC50 [2] | Ki [2] | IC50 [3] | Ki [3] | IC50 [4] | IC50 [5] | IC50 (Cytochrome P450 2C19) | Ki (Cytochrome P450 2C19) | IC50 (Cytochrome P450 2D6) | Ki (Cytochrome P450 2D6)

Nn1nnc2ccccc21
Not Active: IC50 [1] | IC50 [2] | Ki [2] | IC50 [3] | Ki [3] | IC50 [4] | IC50 [5] | IC50 (Cytochrome P450 2C19) | Ki (Cytochrome P450 2C19) | IC50 (Cytochrome P450 2D6) | Ki (Cytochrome P450 2D6)
